Experiments:
Amaranthus tuberculatus [1] = assay: Pre-emergence herbicidal evaluation, AMATA; assay type: in vivo; conditions: three weeks after treatment
From the text: (§1) The treated pots are then placed on greenhouse benches, watered and cared for in accordance with conventional greenhouse procedures.

Alopecurus myosuroides [2] = assay: Pre-emergence herbicidal evaluation, ALOMY; assay type: in vivo; conditions: three weeks after treatment
From the text: as §1

Apera spica venti [3] = assay: Pre-emergence herbicidal evaluation, APESV; assay type: in vivo; conditions: three weeks after treatment
From the text: as §1

Echinochloa crus-galli [4] = assay: Pre-emergence herbicidal evaluation, ECHCG; assay type: in vivo; conditions: three weeks after treatment
From the text: as §1

Setaria viridis [5] = assay: Pre-emergence herbicidal evaluation, SETVI; assay type: in vivo; conditions: three weeks after treatment
From the text: as §1

Lolium perenne [6] = assay: Pre-emergence herbicidal evaluation, LOLPE; assay type: in vivo; conditions: three weeks after treatment
From the text: as §1

Triticum aestivum [7] = assay: Pre-emergence herbicidal evaluation, TRZAW; assay type: in vivo; conditions: three weeks after treatment
From the text: as §1

Hordeum vulgare [8] = assay: Pre-emergence herbicidal evaluation, HORVW; assay type: in vivo; conditions: three weeks after treatment
From the text: as §1

Zea mays [9] = assay: Pre-emergence herbicidal evaluation, ZEAMX; assay type: in vivo; conditions: three weeks after treatment
From the text: as §1

Glycine max [10] = assay: Pre-emergence herbicidal evaluation, GLXMA; assay type: in vivo; conditions: three weeks after treatment
From the text: as §1

Oryza sativum [11] = assay: Pre-emergence herbicidal evaluation, ORYSA; assay type: in vivo; conditions: three weeks after treatment
From the text: as §1

Amaranthus tuberculatus [12] = assay: Post-emergence herbicidal evaluation, AMATA; assay type: in vivo; conditions: three weeks after treatment
Galium aparine = assay: Post-emergence herbicidal evaluation, GALAP; conditions: three weeks after treatment
Alopecurus myosuroides [13] = assay: Post-emergence herbicidal evaluation, ALOMY; conditions: three weeks after treatment
Method: (§2) The compounds of the invention are tested for pre- and post-emergence herbicidal activity.
(§3) Each pot is examined three weeks after treatment and phytotoxicity is assessed according to the rating system set forth below.
(§4) These acetone solutions are diluted with water and the resulting formulations applied at dosage levels equivalent of about 0.4 to 0.1 kg per hectare of test compound per pot. After spraying the plants are placed on greenhouse benches and are cared for in the usual manner, commensurate with conventional greenhouse practices.

Apera spica venti [14] = assay: Post-emergence herbicidal evaluation, APESV; conditions: three weeks after treatment
Method: as §2, §3, §4

Echinochloa crus-galli [15] = assay: Post-emergence herbicidal evaluation, ECHCG; conditions: three weeks after treatment
Setaria viridis [16] = assay: Post-emergence herbicidal evaluation, SETVI; conditions: three weeks after treatment
Lolium perenne [17] = assay: Post-emergence herbicidal evaluation, LOLPE; conditions: three weeks after treatment
Triticum aestivum [18] = assay: Post-emergence herbicidal evaluation, TRZAW; conditions: three weeks after treatment
Hordeum vulgare [19] = assay: Post-emergence herbicidal evaluation, HORVW; conditions: three weeks after treatment
Zea mays [20] = assay: Post-emergence herbicidal evaluation, ZEAMX; conditions: three weeks after treatment
Glycine max [21] = assay: Post-emergence herbicidal evaluation, GLXMA; conditions: three weeks after treatment
Oryza sativum [22] = assay: Post-emergence herbicidal evaluation, ORYSA; conditions: three weeks after treatment

## CCN(C(=O)COc1nnc(C(F)(F)C(F)(F)F)s1)C1=CC(C)(C)CC(C)=C1 [Example 8]
Amaranthus tuberculatus [1]; 0.100 kg/ha
  phytotoxicity rating AMATA: 0 (0 - No effect)
Amaranthus tuberculatus [1]; 0.200 kg/ha
  phytotoxicity rating AMATA: 1 (1 - Trace effect)
Amaranthus tuberculatus [1]; 0.400 kg/ha
  phytotoxicity rating AMATA: 5 (5 - Definite injury)
Amaranthus tuberculatus [1]; 0.800 kg/ha
  phytotoxicity rating AMATA: 6 (6 - Herbicidal effect)
Alopecurus myosuroides [2]; 0.100 kg/ha
  phytotoxicity rating ALOMY: 1 (1 - Trace effect)
Alopecurus myosuroides [2]; 0.200 kg/ha
  phytotoxicity rating ALOMY: 4 (4 - Injury)
Alopecurus myosuroides [2]; 0.400 kg/ha
  phytotoxicity rating ALOMY: 6 (6 - Herbicidal effect)
Alopecurus myosuroides [2]; 0.800 kg/ha
  phytotoxicity rating ALOMY: 8 (8 - Approaching complete kill)
Apera spica venti [3]; 0.100 kg/ha
  phytotoxicity rating APESV: 0 (0 - No effect)
Apera spica venti [3]; 0.200 kg/ha
  phytotoxicity rating APESV: 0 (0 - No effect)
Apera spica venti [3]; 0.400 kg/ha
  phytotoxicity rating APESV: 8 (8 - Approaching complete kill)
Apera spica venti [3]; 0.800 kg/ha
  phytotoxicity rating APESV: 9 (9 - Complete kill)
Echinochloa crus-galli [4]; 0.100 kg/ha
  phytotoxicity rating ECHCG: 1 (1 - Trace effect)
Echinochloa crus-galli [4]; 0.200 kg/ha
  phytotoxicity rating ECHCG: 4 (4 - Injury)
Echinochloa crus-galli [4]; 0.400 kg/ha
  phytotoxicity rating ECHCG: 4 (4 - Injury)
Echinochloa crus-galli [4]; 0.800 kg/ha
  phytotoxicity rating ECHCG: 8 (8 - Approaching complete kill)
Setaria viridis [5]; 0.100 kg/ha
  phytotoxicity rating SETVI: 1 (1 - Trace effect)
Setaria viridis [5]; 0.200 kg/ha
  phytotoxicity rating SETVI: 4 (4 - Injury)
Setaria viridis [5]; 0.400 kg/ha
  phytotoxicity rating SETVI: 4 (4 - Injury)
Setaria viridis [5]; 0.800 kg/ha
  phytotoxicity rating SETVI: 7 (7 - Good herbicidal effect)
Lolium perenne [6]; 0.100 kg/ha
  phytotoxicity rating LOLPE: 1 (1 - Trace effect)
Lolium perenne [6]; 0.200 kg/ha
  phytotoxicity rating LOLPE: 4 (4 - Injury)
Lolium perenne [6]; 0.400 kg/ha
  phytotoxicity rating LOLPE: 6 (6 - Herbicidal effect)
Lolium perenne [6]; 0.800 kg/ha
  phytotoxicity rating LOLPE: 6 (6 - Herbicidal effect)
Triticum aestivum [7]; 0.100 kg/ha
  phytotoxicity rating TRZAW: 0 (0 - No effect)
Triticum aestivum [7]; 0.200 kg/ha
  phytotoxicity rating TRZAW: 0 (0 - No effect)
Triticum aestivum [7]; 0.400 kg/ha
  phytotoxicity rating TRZAW: 0 (0 - No effect)
Triticum aestivum [7]; 0.800 kg/ha
  phytotoxicity rating TRZAW: 0 (0 - No effect)
Hordeum vulgare [8]; 0.100 kg/ha
  phytotoxicity rating HORVW: 0 (0 - No effect)
Hordeum vulgare [8]; 0.200 kg/ha
  phytotoxicity rating HORVW: 0 (0 - No effect)
Hordeum vulgare [8]; 0.400 kg/ha
  phytotoxicity rating HORVW: 1 (1 - Trace effect)
Hordeum vulgare [8]; 0.800 kg/ha
  phytotoxicity rating HORVW: 2 (2 - Slight effect)
Zea mays [9]; 0.100 kg/ha
  phytotoxicity rating ZEAMX: 0 (0 - No effect)
Zea mays [9]; 0.200 kg/ha
  phytotoxicity rating ZEAMX: 0 (0 - No effect)
Zea mays [9]; 0.400 kg/ha
  phytotoxicity rating ZEAMX: 0 (0 - No effect)
Zea mays [9]; 0.800 kg/ha
  phytotoxicity rating ZEAMX: 0 (0 - No effect)
Glycine max [10]; 0.100 kg/ha
  phytotoxicity rating GLXMA: 0 (0 - No effect)
Glycine max [10]; 0.200 kg/ha
  phytotoxicity rating GLXMA: 0 (0 - No effect)
Glycine max [10]; 0.400 kg/ha
  phytotoxicity rating GLXMA: 0 (0 - No effect)
Glycine max [10]; 0.800 kg/ha
  phytotoxicity rating GLXMA: 0 (0 - No effect)
Oryza sativum [11]; 0.100 kg/ha
  phytotoxicity rating ORYSA: 0 (0 - No effect)
Oryza sativum [11]; 0.200 kg/ha
  phytotoxicity rating ORYSA: 0 (0 - No effect)
Oryza sativum [11]; 0.400 kg/ha
  phytotoxicity rating ORYSA: 0 (0 - No effect)
Oryza sativum [11]; 0.800 kg/ha
  phytotoxicity rating ORYSA: 1 (1 - Trace effect)
Amaranthus tuberculatus [12]; 0.100 kg/ha
  phytotoxicity rating AMATA: 0 (0 - No effect)
Amaranthus tuberculatus [12]; 0.200 kg/ha
  phytotoxicity rating AMATA: 0 (0 - No effect)
Amaranthus tuberculatus [12]; 0.400 kg/ha
  phytotoxicity rating AMATA: 0 (0 - No effect)
other
  melting point: 55 °C
Galium aparine; 0.100 kg/ha
  phytotoxicity rating GALAP: 0 (0 - No effect)
Galium aparine; 0.200 kg/ha
  phytotoxicity rating GALAP: 0 (0 - No effect)
Galium aparine; 0.400 kg/ha
  phytotoxicity rating GALAP: 5 (5 - Definite injury)
Alopecurus myosuroides [13]; 0.100 kg/ha
  phytotoxicity rating ALOMY: 0 (0 - No effect)
Alopecurus myosuroides [13]; 0.200 kg/ha
  phytotoxicity rating ALOMY: 4 (4 - Injury)
Alopecurus myosuroides [13]; 0.400 kg/ha
  phytotoxicity rating ALOMY: 4 (4 - Injury)
Apera spica venti [14]; 0.100 kg/ha
  phytotoxicity rating APESV: 0 (0 - No effect)
Apera spica venti [14]; 0.200 kg/ha
  phytotoxicity rating APESV: 4 (4 - Injury)
Apera spica venti [14]; 0.400 kg/ha
  phytotoxicity rating APESV: 6 (6 - Herbicidal effect)
Echinochloa crus-galli [15]; 0.100 kg/ha
  phytotoxicity rating ECHCG: 0 (0 - No effect)
Echinochloa crus-galli [15]; 0.200 kg/ha
  phytotoxicity rating ECHCG: 0 (0 - No effect)
Echinochloa crus-galli [15]; 0.400 kg/ha
  phytotoxicity rating ECHCG: 0 (0 - No effect)
Setaria viridis [16]; 0.100 kg/ha
  phytotoxicity rating SETVI: 0 (0 - No effect)
Setaria viridis [16]; 0.200 kg/ha
  phytotoxicity rating SETVI: 0 (0 - No effect)
Setaria viridis [16]; 0.400 kg/ha
  phytotoxicity rating SETVI: 0 (0 - No effect)
Lolium perenne [17]; 0.100 kg/ha
  phytotoxicity rating LOLPE: 1 (1 - Trace effect)
Lolium perenne [17]; 0.200 kg/ha
  phytotoxicity rating LOLPE: 7 (7 - Good herbicidal effect)
Lolium perenne [17]; 0.400 kg/ha
  phytotoxicity rating LOLPE: 8 (8 - Approaching complete kill)
Triticum aestivum [18]; 0.100 kg/ha
  phytotoxicity rating TRZAW: 0 (0 - No effect)
Triticum aestivum [18]; 0.200 kg/ha
  phytotoxicity rating TRZAW: 0 (0 - No effect)
Triticum aestivum [18]; 0.400 kg/ha
  phytotoxicity rating TRZAW: 1 (1 - Trace effect)
Hordeum vulgare [19]; 0.100 kg/ha
  phytotoxicity rating HORVW: 0 (0 - No effect)
Hordeum vulgare [19]; 0.200 kg/ha
  phytotoxicity rating HORVW: 0 (0 - No effect)
Hordeum vulgare [19]; 0.400 kg/ha
  phytotoxicity rating HORVW: 0 (0 - No effect)
Zea mays [20]; 0.100 kg/ha
  phytotoxicity rating ZEAMX: 0 (0 - No effect)
Zea mays [20]; 0.200 kg/ha
  phytotoxicity rating ZEAMX: 0 (0 - No effect)
Zea mays [20]; 0.400 kg/ha
  phytotoxicity rating ZEAMX: 0 (0 - No effect)
Glycine max [21]; 0.100 kg/ha
  phytotoxicity rating GLXMA: 2 (2 - Slight effect)
Glycine max [21]; 0.200 kg/ha
  phytotoxicity rating GLXMA: 3 (3 - Moderate effect)
Glycine max [21]; 0.400 kg/ha
  phytotoxicity rating GLXMA: 4 (4 - Injury)
Oryza sativum [22]; 0.100 kg/ha
  phytotoxicity rating ORYSA: 0 (0 - No effect)
Oryza sativum [22]; 0.200 kg/ha
  phytotoxicity rating ORYSA: 0 (0 - No effect)
Oryza sativum [22]; 0.400 kg/ha
  phytotoxicity rating ORYSA: 2 (2 - Slight effect)

— patent US6339042B1, “Herbicidal N-cyclohexadienyl heteroaryloxyacetamides” (American Cyanamid Co., priority 1999, dated 2002)
